According to patent US20240024317A1, “CANCER TREATMENT USING BOSENTAN IN COMBINATION WITH A CHECKPOINT INHIBITOR” (Materia Therapeutics Inc., priority 2020, published 2024):

Legend:
Type in all cases: in vivo, mice
4T1 tumors [1] = assay: Ultrasound shear wave elastography of tissue stiffness, bosentan dose response; settings: 1 mg/kg daily bosentan i.p.; 4T1 breast tumors
Method: (§1) Mice bearing syngeneic, orthotopic triple negative breast cancer (TNBC) were treated with a range of sub-therapeutic doses of bosentan, from 0.2 mg/kg to 10 mg/kg of body weight. Orthotopic models for murine mammary tumors were generated by implantation of 5×10^4 4T1 or E0771 cancer cells in 40 μl of serum-free medium into the third mammary fat pad of 6-8-week-old BALB/c and C57BL/6 female mice, respectively. 4T1 (ATCC® CRL-2539TH) and E0771 (94A001, CH3 BioSystems) mouse breast adenocarcinoma cell lines were purchased form ATCC and CH3 BioSystems, respectively. The cells were maintained at 37° C./5% CO2 in Roswell Park Memorial Institute medium (RPMI-1640, LM-R1637, Biosera) supplemented with 10% fetal bovine serum (FBS, FB-1001H, biosera) and 1% antibiotics (A5955, Sigma). Bosentan (bosentan Hydrate (S3051, Selleckchem) was dissolved in ddH2O containing 2% DMSO (GK2245, Glentham Life Science), 30% PEG300 (S6704, Selleckchem) and 2% Tween 80 (S6702, Selleckchem)) 1 mg/kg, 5 mg/kg, 10 mg/kg or equal volume of diluent (control group) was administered by intraperitoneal injection (i.p.) once a day for 10 days, starting from once the tumor volumes reached an average size of 100 mm^3. Tumors were excised when they reached an average size of 500 mm^3. Tissue stiffness was then measured non-invasively and longitudinally using ultrasound elastography. […]

E0771 tumors = assay: as above; settings: 1 mg/kg daily bosentan i.p.; E0771 breast tumors
Method: as §1

4T1 tumors [2] = assay: CD3/CD31 immunofluorescence: T cell proximity to endothelial cells and area fractions
Method: Because reducing collagen I levels and tissue stiffness decompresses vessels, it was hypothesized that hypoxia, which is an indicator of decreased blood flow to the tumor, would be reduced with bosentan treatment. […] For the hypoxia studies, Mice bearing orthotopic E0771 or 4T1 breast tumors were injected (intraperitoneal) with 60 mg/kg of pimonidazole HCl at 2 hr prior to tumor removal. Prior to tumors excision, animals were anesthetized via Avertin (200 mg/kg, intraperitoneal). Primary tumors were then excised, fixed in 4% PFA, embedded in OCT and processed accordingly for IHC. Hypoxic regions were detected using the mouse anti-pimonidazole RED 549 conjugate antibody (HP7-100Kit, 1:100). Hypoxic area fraction across different treatment groups was normalized to DAPI staining. For fluorescent immunohistochemistry, tumors were removed, washed twice in 1× PBS for 10 min and incubated with 4% PFA overnight at 4° C. The fixative was aspirated, and samples washed twice in 1× PBS for 10 min. Fixed tissues were embedded in optimal cutting temperature compound in cryomolds (Tissue-Tek) and frozen completely at −20° C. Transverse 30 μm thick tumor sections were produced using the Tissue-Tek Cryo3 (SAKURA). Positively charged HistoBond microscope slides (Marienfeld) were used to bond four tissue sections per tumor. Tumor sections were then incubated in blocking solution (10% fetal bovine serum, 3% donkey serum, 1× PBS) for 2h and immunostained with the following primary antibodies; rabbit anti-Collagen I (ab4710, Abcam 1:100), rabbit anti-CD31 (ab28364, Abcam 1:50), rat anti-CD3 (17A2, BioLegend 1:50) and aSMA (ab5694, Abcam 1:50) overnight at 4° C. Secondary antibodies against rabbit, mouse or rat conjugated to Alexa Fluor 488 or 647 (Invitrogen) were used at 1:400 dilution. […] CD31 signal was detected with Alexa Fluor-488 anti-rabbit IgG (H+L) and CD3 signal with Alexa Fluor-647 anti-rat IgG (H+L) secondary antibodies. Tumor associated T cell and vessel content was determined by the CD31 and CD3 area fraction normalized to DAPI staining. […]

COc1ccccc1Oc1c(NS(=O)(=O)c2ccc(C(C)(C)C)cc2)nc(-c2ncccn2)nc1OCCO [bosentan, 4-tert-butyl-N-[6-(2-hydroxy-ethoxy)-5-(2-methoxy-phenoxy)-2-(pyrimidin-2-yl)pyrimidin-4-yl] benzenesulfonamide]
tissue stiffness (ultrasound elastography) (4T1 tumors [1]): reduced tissue stiffness | tissue stiffness (ultrasound elastography) (E0771 tumors): reduced tissue stiffness | T cells colocalizing with endothelial cells (CD3+/CD31+ proximity) (4T1 tumors [2]): more T cells colocalizing with endothelial cells | area fraction of CD3+ staining (4T1 tumors [2]): no change | area fraction of CD31+ staining (4T1 tumors [2]): no change
